This is an account of results in US20060014729A1, “Compounds and their preparation for the treatment of Alzheimer's disease by inhibiting beta-amyloid peptide production” (priority 2004, published 2006).

For one test, the system named is Aβ42. To be noted: cited from earlier work.
Another test relates to γ-secretase complex. To be noted: partially purified γ-secretase complex; cited from earlier work.
A further test has as its system secreted Aβ40 and Aβ42. The test can be described thus: Aβ ELISA in CHO-APP cells treated with compounds. Format: cell-based, hamster (CHO) cells expressing human APP. The conditions noted are these: 50 μg/ml, 6 and 24 hours, normalized to full-length APP and vehicle-treated cells. The procedure:
CHO cells stably transfected with human APP751 (CHO-APP cells) were treated with compounds as described above. The compounds were used at 50 μg/ml for 6 and 24 hours. Levels of secreted Aβ40 and Aβ42 were determined using a commercial Aβ ELISA kit (Biosource) and normalized to cell-associated full-length APP. The relative levels of Aβ40 (white bar) and Aβ42 (black bar) were normalized to values obtained from vehicle-treated cells and are shown as % to control. […] (D10=20(S), 24(R)-epoxydammarane-3β,25-diol; D2=Dammar-24-ene-3β,20(S)-diol; D3=reduction mixture of dammar resin by NaBH4; D5=Dammar resin mixture; D6=dipterocarpol; D7=t-butylhydroperoxide-oxidized products of D3. D8=3-acetyl Dammar-24-ene-3A, 20(S)-diol; D9=3-acetyl 20(S),24(R)-epoxydammarane-3β,25-diol; D10=20(S),24(R)-epoxydammarane-3×, 25-diol; D11=Dammar-24-ene-3×, 20(S)-diol; D12=tetraacetyl 20-hydroxydammar-24-ene-3-yl-glucopyranoside; D13=20-hydroxydammar-24-ene-3-yl-glucopyranoside; D15=20(S), 24(R)-epoxydammarane-3-oxo, 25-ol.

Take `C=C(CCC=C(C)C)[C@H]1CC[C@]2(C)[C@@H]1[C@H](O)C[C@@H]1[C@@]3(C)CC[C@H](O[C@@H]4O[C@H](CO)[C@@H](O)[C@H](O)[C@H]4O[C@@H]4O[C@H](CO)[C@@H](O)[C@H](O)[C@H]4O)C(C)(C)[C@@H]3CC[C@]12C` [Rk1]: in the test on Aβ42 (mammalian cells), the “production of Aβ42 in mammalian cells” value is recorded as “lower the production of Aβ42 in mammalian cells” and the “relative effectiveness in reducing Aβ42 levels” value was “most effective in reducing Aβ42 levels”. Also, the “Aβ42 production in cell-free assay” value in the test with γ-secretase complex is recorded as “inhibit the Aβ42 production”.

As for `CC(C)=CCC[C@](C)(O[C@@H]1O[C@H](CO)[C@@H](O)[C@H](O)[C@H]1O)[C@H]1CC[C@]2(C)[C@@H]1[C@H](O)C[C@@H]1[C@@]3(C)CC[C@H](O)C(C)(C)[C@@H]3[C@@H](O[C@@H]3O[C@H](CO)[C@@H](O)[C@H](O)[C@H]3O)C[C@]12C` [Rg1], the “amyloid-reducing activity in vitro” value in the test on Aβ42 (in vitro) is “no amyloid-reducing activity in vitro”.

As for `CC(C)=CCC[C@](C)(O)[C@H]1CC[C@]2(C)[C@@H]1CC[C@@H]1[C@@]3(C)CCC(=O)C(C)(C)[C@@H]3CC[C@]12C` [Compound D6, dipterocarpol], the “Aβ-lowering activity (levels of secreted Aβ40 and Aβ42, % to control)” value in the test with secreted Aβ40 and Aβ42 was “exhibited Aβ-lowering activities”.

Take “tetraacetyl 20-hydroxydammar-24-ene-3-yl-glucopyranoside [Compound D12]”: the “Aβ-lowering activity (levels of secreted Aβ40 and Aβ42, % to control)” value with secreted Aβ40 and Aβ42 is listed as “exhibited Aβ-lowering activities”.

Consider `CC(C)(O)[C@H]1CC[C@@](C)([C@H]2CC[C@]3(C)[C@@H]2CC[C@@H]2[C@@]4(C)CC[C@H](O)C(C)(C)[C@@H]4CC[C@]23C)O1` [Compound D1, 20(S), 24(R)-epoxydammarane-3β, 25-diol], for which the “selective potentiation of Aβ42 production” value (from here on “selective potentiation”) with secreted Aβ40 and Aβ42 is “selectively potentiated Aβ42 production”.

Take `CC(C)=CC/C=C(\C)[C@H]1CC[C@]2(C)[C@@H]1[C@H](O)C[C@@H]1[C@@]3(C)CC[C@H](O[C@@H]4O[C@H](CO)[C@@H](O)[C@H](O)[C@H]4O[C@@H]4O[C@H](CO)[C@@H](O)[C@H](O)[C@H]4O)C(C)(C)[C@@H]3CC[C@]12C` [Rg5]: in the test on Aβ42 (mammalian cells), the “production of Aβ42 in mammalian cells” value is “lower the production of Aβ42 in mammalian cells”.

In the case of `CC(C)=CCCC(C)(O)C1CC[C@]2(C)C1CCC1[C@@]3(C)CC[C@@H](O)C(C)(C)C3CC[C@]12C` (stereo partly drawn) [Compound D11, Dammar-24-ene-3α,20(S)-diol], the “Aβ-lowering activity (levels of secreted Aβ40 and Aβ42, % to control)” value in the test on secreted Aβ40 and Aβ42 is given as “exhibited Aβ-lowering activities”.

As for `CC(=O)O[C@H]1CC[C@]2(C)[C@H]3CC[C@@H]4[C@@H]([C@]5(C)CC[C@H](C(C)(C)O)O5)CC[C@@]4(C)[C@]3(C)CC[C@H]2C1(C)C` [Compound D9, 3-acetyl 20(S),24(R)-epoxydammarane-3β,25-diol], in the test on secreted Aβ40 and Aβ42, the “selective potentiation” value was “selectively potentiated Aβ42 production”.

On to `CC(C)(O)[C@H]1CC[C@@](C)([C@H]2CC[C@]3(C)[C@@H]2CC[C@@H]2[C@@]4(C)CC[C@@H](O)C(C)(C)[C@@H]4CC[C@]23C)O1` [Compound D10, 20(S),24(R)-epoxydammarane-3 cc, 25-diol], for which the “Aβ-lowering activity (levels of secreted Aβ40 and Aβ42, % to control)” value in the test with secreted Aβ40 and Aβ42 is on record as “exhibited Aβ-lowering activities”.

As for `CC(C)=CCCC(C)(O)C1CC[C@]2(C)C1CCC1[C@@]3(C)CC[C@H](O)C(C)(C)C3CC[C@]12C` (stereo partly drawn) [Compound D2, Dammar-24-ene-3β,20(S)-diol], the “selective potentiation” value in the test on secreted Aβ40 and Aβ42 is “selectively potentiated Aβ42 production”.

Take `CC(C)(O)C1CCC(C)(C2CCC3(C)C2CCC2C4(C)CCC(=O)C(C)(C)C4CCC23C)O1` [Compound D15, 20(S), 24(R)-epoxydammarane-3-oxo, 25-ol]: the “Aβ-lowering activity (levels of secreted Aβ40 and Aβ42, % to control)” value in the test with secreted Aβ40 and Aβ42 is listed as “exhibited Aβ-lowering activities”.

For `CC(C)=CCC[C@](C)(O)[C@H]1CC[C@]2(C)[C@@H]1[C@H](O)C[C@@H]1[C@@]3(C)CC[C@H](O[C@@H]4O[C@H](CO)[C@@H](O)[C@H](O)[C@H]4O[C@@H]4O[C@H](CO)[C@@H](O)[C@H](O)[C@H]4O)C(C)(C)[C@@H]3CC[C@]12C` [(20S)Rg3], in the test with Aβ42 (mammalian cells), the “production of Aβ42 in mammalian cells” value was “lower the production of Aβ42 in mammalian cells”.
